Like-named read-outs stand apart in the source and are kept apart here.

A short description of one data set: Liver HFPO-TeA dosimetry. The class given is in vivo, Sprague Dawley rats. As to conditions: for 5D Liver Conc.: 5 days of exposure, mean ± SD n=4; for concentration at 5 days: Sprague Dawley, rat, liver, oral, wet weight, individual rats, read-out: Liver Conc. The method, then: Whole blood was collected from the retro-orbital plexus under isoflurane anesthesia 2 h following the first dose and by cardiac puncture 24 h after the last dosage. Blood was stored in anticoagulant potassium ethylenediaminetetraacetic acid (K3EDTA)-coated vacutainers, and then processed to isolate plasma via centrifugation. Animals were euthanized via carbon dioxide asphyxiation and subsequent exsanguination. Liver was collected, weighed, cubed, and divided into three aliquots. One aliquot of tissue was flash-frozen in liquid nitrogen and stored at −80 °C for analytical chemistry analyses. The remaining two aliquots were placed in RNALater and frozen for use in the companion transcriptomic study. Liver and plasma samples were received at the U.S. EPA Center for Computational Toxicology and Exposure, Advanced Analytical Chemistry Methods Branch in Research Triangle Park, North Carolina, USA, and stored at −80 °C prior to extraction.
Information on the chemicals and materials used in the liver plasma HFPO-TeA dosimetry work can be found in Supplementary Text S6 and Table S3. Liver sample preparation was modified from Conley et al.’s work and detailed in Supplementary Text S6 [49]. Briefly, samples were spiked with the internal standard PFHxDA then homogenized in 200 µL of ACN containing 0.1% formic acid. The sample was centrifuged, and the supernatant was transferred. This process was repeated twice more, then stored at −20 °C prior to analysis.
Liver samples were analyzed using the same analytical assessment procedure as the plasma dosimetry samples. Matrix blanks were analyzed with each sample set. HFPO-TeA was not detected in the blanks above the limit of quantitation (LOQ) of 1.58 µM. Statistical analysis is described in Supplementary Text S3, normalization calculations are described in Supplementary Text S5 [47], and the liver-to-plasma partitioning calculation is outlined in Supplementary Text S7 [32, 50, 51].
All in vivo results values are reported as mean ± one standard deviation (SD). Statistical evaluation of in vivo data was conducted using a two-way analysis of variance (ANOVA) and Dunnett’s Test, both at α = 0.05 significance level, on GraphPad Prism v9.5.1.
Support ing Text S4: Plasma Dosimetry Chemicals, Materials, and Analysis Sprague Dawley rodent plasma (pooled, mixed sex) collected with ethylenediaminetetraacetic acid (EDTA) and sterile filtered (0.2 µm) was obtained from BioIVT (Westbury, NY, USA) and stored at -80 °C until use as the control matrix for generating calibration curves and as the matrix blank during plasma sample analysis. The HFPO-TeA (98.97% pure) used for calibration curve preparation was obtained from Oakwood Products Inc. (West Columbia, South Carolina, USA). Unlabeled perfluorohexadecanoic acid (CASRN 67905-19-5 | DTXSID1070800 | PFHxDA; ≥ 98% pure) was obtained from Cambridge Isotope Laboratories (Tewksbury, MA, USA) to serve as the internal standard since a labeled HFPO-TeA standard was not commercially available. […]
Samples were quantitated against matrix-matched calibration curves containing a minimum of 5 points spanning the range 20 – 80,280 ng/mL plasma. Calibrants were prepared by spiking commercial rat plasma (BioIVT) with HFPO-TeA and PFHxDA and then extracted in the same manner as study samples.
Support ing Text S5: Normalization of Dosimetry Data Calculations
Percent dose of HFPO-TeA in plasma was calculated using the observed plasma concentrations and the average plasma volume for Sprague Dawley rats. The density of plasma was then used to convert from mL plasma to grams plasma for ease of comparison to the liver percent dose data. Average percent dose of HFPO-TeA in liver was calculated using the observed liver concentrations and liver weights. These calculations allow for a comparison of the potential saturation of available proteins in […]
Support ing Text S6: Liver Dosimetry Chemicals, Materials, and Analysis […]

On the set-up of data set [1]: method as in PMID 35436088. Particulars: male mice, cited from earlier work.

On to `O=C(O)C(F)(OC(F)(F)C(F)(OC(F)(F)C(F)(OC(F)(F)C(F)(F)C(F)(F)F)C(F)(F)F)C(F)(F)F)C(F)(F)F` (stereo not shown) [HFPO-TeA, perfluoro-(2,5,8-trimethyl-3,6,9-trioxadodecanoic) acid], for which the “5D Liver Conc.” value in the data set “Liver HFPO-TeA dosimetry” (0.9 mg/kg/day, F) came out at 14.0 ± 4.3 µM; in the data set “Liver HFPO-TeA dosimetry” (2.3 mg/kg/day, F), 16.5 ± 12.6 µM; in “Liver HFPO-TeA dosimetry” (2.3 mg/kg/day, M), 10.3 ± 7.5 µM; in the data set “Liver HFPO-TeA dosimetry” (6.3 mg/kg/day, F), 86.8 ± 31.7 µM; in the data set “Liver HFPO-TeA dosimetry” (6.3 mg/kg/day, M) it was 82.7 ± 10.5 µM; in “Liver HFPO-TeA dosimetry” (17 mg/kg/day, F) it was 250 ± 39 µM. Also, the “5D Liver Conc.” value in “Liver HFPO-TeA dosimetry” (17 mg/kg/day, M) is 210 ± 85 µM. The concentration at 5 days in “Liver HFPO-TeA dosimetry” (female, 0.9 mg/kg/day, F) came out at 9240 ng/g; in the data set “Liver HFPO-TeA dosimetry” (female, 17 mg/kg/day, F), 174000 ng/g; in the data set “Liver HFPO-TeA dosimetry” (male, 6.3 mg/kg/day, M), 61600 ng/g. Further, the “experimental Kp” value is reported as “approximately 20” in data set [1] (0.02 mg/kg/day for 7 days), around 40 in data set [1] (0.2 mg/kg/day for 7 days) and around 5 in data set [1] (2 mg/kg/day for 7 days).

These data come from paper PMC10747602, “Dose Response, Dosimetric, and Metabolic Evaluations of Replacement PFAS Perfluoro-(2,5,8-trimethyl-3,6,9-trioxadodecanoic) Acid (HFPO-TeA)” (Toxics, 2023).
